According to patent publication US11312676B2, “Small molecule stimulators of steroid receptor coactivator proteins and their use in the treatment of cancer” (BAYLOR COLLEGE OF MEDICINE, priority 2014, dated 2022):
Peptide text beside a SMILES is read from it. * marks the point of attachment. Cbz = O=C(OCc1ccccc1)*; CH2F = FC*

How the values were obtained:
Format in all cases: cell-based
SRC-3 = molecular target: T1, SRC-3 (Homo sapiens, UniProt Q9Y6Q9); experiment: Gal4 luciferase reporter assay (pBIND-SRC-3 + pG5-LUC) in HeLa cells; details: for effect on activation of SRC-3 by MCB-613: co-treatment with MCB-613, 24 hours; for intrinsic transcriptional activity of SRC-3: 24 hours, additional paraptosis agents
T1 construct: expressed in transfected cells; host or cells: HeLa
Description: (§1) The constructs expressing the Gal4 responsive luciferase reporter (pG5-luc), Gal4 DBD fusion with SRC-1, […] (pBIND-SRC-1/-2/-3), MMP2 or MMP13 promoter driven luciferase reporter (MMP2-luc, MMP13-luc) were prepared. Twenty-four hours before transfection, HeLa cells were plated in 24-well dishes. The indicated expression plasmids were transfected into cells using Lipofectamine 2000 according to the manufacturer's instructions.
(§2) After various compound treatments, cells were lysed in luciferase lysis buffer and assayed for luciferase activity using the ONE-Glo luciferase assay system (Promega, Madison, Wis.). All luciferase activities were normalized to protein concentration determined by Bradford assay (Bio-Rad, Hercules, Calif.).
HeLa cells were transfected with a Gal4 responsive luciferase reporter (pG5-luc) and a construct encoding SRC-1, SRC-2 or SRC-3 fused with the DNA binding domain of Gal4 (pBIND-SRC-1, pBIND-SRC-2 or pBIND-SRC-3) were treated with the indicated compounds.

SRC-2 = molecular target: T2, SRC-2 (Homo sapiens, UniProt Q15596); experiment: Gal4 luciferase reporter assay (pBIND-SRC-2 + pG5-LUC) in HeLa cells; details: for intrinsic transcriptional activity of SRC-2: 24 hours, additional paraptosis agents
T2 construct: expressed in transfected cells; host or cells: HeLa
Description: as §1, §2

SRC-1 = SRC-1 (Homo sapiens, UniProt Q15788); experiment: Gal4 luciferase reporter assay (pBIND-SRC-1 + pG5-LUC) in HeLa cells; design: expressed in transfected cells; host or cells: HeLa; details: for intrinsic transcriptional activity of SRC-1: 24 hours, additional paraptosis agents
Description: as §1, §2

HeLa cells [1] = experiment: MTS cell viability assay, HeLa cells; details: HeLa cells, co-treatment with MCB-613, 24 hours
HeLa cells [2] = experiment: Cytoplasmic vacuolization of cancer cells; details: HeLa cells, co-treatment with MCB-613, 24 hours
[3] = system: TM4 Sertoli cells and GBM cancer cells; experiment: CellTiter-Glo viability, TM4 Sertoli cells versus GBM cell lines R0315 and 4687; details: 72 hours, GBM R0315 and 4687 vs TM4 Sertoli
Description: The effects of SYC-851 (Compound 4-8), SYC-852 (Compound 5-1), SYC-853 (Compound 5-4), and SYC-855 (Compound 7-8) on TM4 Sertoli cells and on GBM cancer cells were determined. Cells were plated as monolayer cultures and treated 24 hours later with the indicated concentration of compounds. After 72 hours, cells were harvested and assayed for viability using a CellTiter-Glo assay […]. The results for TM4 Setoli cells and for pediatric glioblastoma multiforme cell lines R0315 and 4687 and are shown in FIGS. 18A, 18B, and 18C, respectively.

HeLa cells [4] = experiment: Western blot of stress, UPR, autophagy and apoptosis markers in HeLa cells; details: co-treatment with MCB-613, 24 hours
Description: For Western blotting, cells were harvested and lysed in lysis buffer (50 mM Tris, pH 8.0, 150 mM NaCl, 10% glycerol, 0.5% NP40, protease and phosphatase inhibitor) and then centrifuged for 15 min at 14000 rpm at 4° C. After total cellular protein concentration was determined by Bradford analysis (Bio-Rad, Hercules, Calif.), protein lysates were loaded onto and resolved by sodium dodecyl sulfate-polyacrylamide gel electrophoresis (SDS-PAGE) and transferred to PVDF membranes (BioRad) which were blocked and incubated with indicated antibodies. For immunoprecipitation, 10 μg of plasmid encoding FLAG-SRC-3 was transfected into HeLa cells with 90% confluence in one 10 cm plate with lipofectamine 2000 (Invitrogen). Twenty-four hours after transfection, the cells were treated with MCB-613 for one hour and lysed with lysis buffer (25 mM Tris-Cl pH7.5, 150 mM NaCl, 5% glycerol, 1 mM EDTA, 1% Triton X-100, protease and phosphatase inhibitor) at 4° C. After a 30-second sonication, the lysate was cleared by centrifugation at 14000 rpm at 4° C. for 15 minutes and was incubated with anti-Flag-M2 agarose affinity gel (Sigma) for four hours. The agarose gel was washed four times with washing buffer (25 mM Tris pH 8.0, 150 mM NaCl, 1 mM EDTA, 1% Triton X-100) and resuspended with SDS loading buffer for Western blotting.

[5] = co-treatment with MCB-613, 24 hours

T2 sequence (Q15596 whole entry, the tested form may be a part): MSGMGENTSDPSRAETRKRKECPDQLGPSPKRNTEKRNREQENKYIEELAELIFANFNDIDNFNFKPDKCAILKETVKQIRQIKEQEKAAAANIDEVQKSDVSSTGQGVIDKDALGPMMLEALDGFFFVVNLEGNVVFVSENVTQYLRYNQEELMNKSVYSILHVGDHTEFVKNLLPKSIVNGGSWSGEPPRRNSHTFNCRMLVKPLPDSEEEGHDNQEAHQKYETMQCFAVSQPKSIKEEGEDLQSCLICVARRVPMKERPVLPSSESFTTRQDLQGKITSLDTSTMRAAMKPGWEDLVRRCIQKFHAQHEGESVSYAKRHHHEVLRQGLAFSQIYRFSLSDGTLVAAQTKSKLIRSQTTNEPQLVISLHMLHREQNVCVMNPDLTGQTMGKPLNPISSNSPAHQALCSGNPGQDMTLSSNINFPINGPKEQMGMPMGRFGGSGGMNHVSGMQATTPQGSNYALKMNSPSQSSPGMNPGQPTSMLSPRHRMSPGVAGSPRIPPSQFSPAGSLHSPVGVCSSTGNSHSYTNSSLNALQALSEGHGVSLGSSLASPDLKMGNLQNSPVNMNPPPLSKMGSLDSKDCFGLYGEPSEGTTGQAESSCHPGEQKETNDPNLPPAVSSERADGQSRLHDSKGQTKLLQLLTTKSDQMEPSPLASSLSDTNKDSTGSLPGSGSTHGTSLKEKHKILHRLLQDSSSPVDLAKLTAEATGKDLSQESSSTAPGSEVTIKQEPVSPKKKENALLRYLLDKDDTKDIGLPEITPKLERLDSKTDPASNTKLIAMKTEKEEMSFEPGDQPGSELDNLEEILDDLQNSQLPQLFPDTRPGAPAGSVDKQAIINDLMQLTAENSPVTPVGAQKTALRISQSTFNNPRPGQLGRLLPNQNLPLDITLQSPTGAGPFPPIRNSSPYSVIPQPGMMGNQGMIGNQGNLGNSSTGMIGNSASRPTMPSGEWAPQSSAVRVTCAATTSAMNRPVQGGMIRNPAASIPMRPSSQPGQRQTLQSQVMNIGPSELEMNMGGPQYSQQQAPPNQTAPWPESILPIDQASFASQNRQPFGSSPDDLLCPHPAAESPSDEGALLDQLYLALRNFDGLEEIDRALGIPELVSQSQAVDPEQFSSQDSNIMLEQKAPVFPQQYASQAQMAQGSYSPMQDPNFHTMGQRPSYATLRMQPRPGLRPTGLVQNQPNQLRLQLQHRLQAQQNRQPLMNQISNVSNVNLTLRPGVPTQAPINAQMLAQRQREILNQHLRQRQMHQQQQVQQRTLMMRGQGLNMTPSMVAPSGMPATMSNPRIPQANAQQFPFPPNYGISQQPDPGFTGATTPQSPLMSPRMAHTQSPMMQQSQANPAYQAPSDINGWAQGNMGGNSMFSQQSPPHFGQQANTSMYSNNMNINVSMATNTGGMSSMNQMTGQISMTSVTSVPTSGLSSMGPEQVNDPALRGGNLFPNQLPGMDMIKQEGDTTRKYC
T1 sequence (Q9Y6Q9 whole entry, the tested form may be a part): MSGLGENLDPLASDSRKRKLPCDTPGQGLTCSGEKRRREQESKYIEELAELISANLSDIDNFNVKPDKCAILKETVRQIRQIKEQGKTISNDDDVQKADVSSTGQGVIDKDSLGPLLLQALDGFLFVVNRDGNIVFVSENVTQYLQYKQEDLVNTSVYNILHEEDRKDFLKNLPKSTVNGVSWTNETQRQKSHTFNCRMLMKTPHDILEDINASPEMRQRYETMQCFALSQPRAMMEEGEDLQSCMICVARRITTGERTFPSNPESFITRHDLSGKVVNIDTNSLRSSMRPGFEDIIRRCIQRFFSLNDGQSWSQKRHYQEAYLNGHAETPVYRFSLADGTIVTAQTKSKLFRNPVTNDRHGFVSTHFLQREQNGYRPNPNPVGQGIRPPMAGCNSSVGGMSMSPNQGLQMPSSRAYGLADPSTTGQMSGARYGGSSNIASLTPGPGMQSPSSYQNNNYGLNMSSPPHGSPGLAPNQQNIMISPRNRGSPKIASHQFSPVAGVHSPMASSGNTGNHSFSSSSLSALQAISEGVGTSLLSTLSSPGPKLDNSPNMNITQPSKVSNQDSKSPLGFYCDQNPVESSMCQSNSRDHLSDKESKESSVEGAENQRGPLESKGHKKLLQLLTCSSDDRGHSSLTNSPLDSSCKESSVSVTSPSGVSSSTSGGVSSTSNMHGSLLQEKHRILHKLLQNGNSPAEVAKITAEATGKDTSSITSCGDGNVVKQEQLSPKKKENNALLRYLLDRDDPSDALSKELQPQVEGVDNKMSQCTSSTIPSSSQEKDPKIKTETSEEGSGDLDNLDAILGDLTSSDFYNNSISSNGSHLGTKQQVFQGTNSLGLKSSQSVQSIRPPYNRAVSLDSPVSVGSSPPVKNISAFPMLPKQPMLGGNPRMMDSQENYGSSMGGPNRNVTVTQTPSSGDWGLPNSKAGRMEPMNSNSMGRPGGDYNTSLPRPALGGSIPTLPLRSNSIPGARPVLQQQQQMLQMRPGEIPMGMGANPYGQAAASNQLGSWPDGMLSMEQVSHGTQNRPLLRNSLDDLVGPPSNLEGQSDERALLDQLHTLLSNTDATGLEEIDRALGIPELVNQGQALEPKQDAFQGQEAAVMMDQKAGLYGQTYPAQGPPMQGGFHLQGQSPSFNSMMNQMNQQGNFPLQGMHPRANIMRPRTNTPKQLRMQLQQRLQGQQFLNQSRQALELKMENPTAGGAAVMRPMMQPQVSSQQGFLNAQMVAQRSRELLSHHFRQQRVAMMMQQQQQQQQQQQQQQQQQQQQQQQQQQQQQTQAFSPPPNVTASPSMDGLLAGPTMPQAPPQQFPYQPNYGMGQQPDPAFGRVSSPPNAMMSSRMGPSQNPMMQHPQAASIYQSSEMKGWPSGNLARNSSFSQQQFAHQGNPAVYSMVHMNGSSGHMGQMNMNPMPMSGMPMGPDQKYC
Sequence of SRC-1 (Q15788 whole entry, the tested form may be a part): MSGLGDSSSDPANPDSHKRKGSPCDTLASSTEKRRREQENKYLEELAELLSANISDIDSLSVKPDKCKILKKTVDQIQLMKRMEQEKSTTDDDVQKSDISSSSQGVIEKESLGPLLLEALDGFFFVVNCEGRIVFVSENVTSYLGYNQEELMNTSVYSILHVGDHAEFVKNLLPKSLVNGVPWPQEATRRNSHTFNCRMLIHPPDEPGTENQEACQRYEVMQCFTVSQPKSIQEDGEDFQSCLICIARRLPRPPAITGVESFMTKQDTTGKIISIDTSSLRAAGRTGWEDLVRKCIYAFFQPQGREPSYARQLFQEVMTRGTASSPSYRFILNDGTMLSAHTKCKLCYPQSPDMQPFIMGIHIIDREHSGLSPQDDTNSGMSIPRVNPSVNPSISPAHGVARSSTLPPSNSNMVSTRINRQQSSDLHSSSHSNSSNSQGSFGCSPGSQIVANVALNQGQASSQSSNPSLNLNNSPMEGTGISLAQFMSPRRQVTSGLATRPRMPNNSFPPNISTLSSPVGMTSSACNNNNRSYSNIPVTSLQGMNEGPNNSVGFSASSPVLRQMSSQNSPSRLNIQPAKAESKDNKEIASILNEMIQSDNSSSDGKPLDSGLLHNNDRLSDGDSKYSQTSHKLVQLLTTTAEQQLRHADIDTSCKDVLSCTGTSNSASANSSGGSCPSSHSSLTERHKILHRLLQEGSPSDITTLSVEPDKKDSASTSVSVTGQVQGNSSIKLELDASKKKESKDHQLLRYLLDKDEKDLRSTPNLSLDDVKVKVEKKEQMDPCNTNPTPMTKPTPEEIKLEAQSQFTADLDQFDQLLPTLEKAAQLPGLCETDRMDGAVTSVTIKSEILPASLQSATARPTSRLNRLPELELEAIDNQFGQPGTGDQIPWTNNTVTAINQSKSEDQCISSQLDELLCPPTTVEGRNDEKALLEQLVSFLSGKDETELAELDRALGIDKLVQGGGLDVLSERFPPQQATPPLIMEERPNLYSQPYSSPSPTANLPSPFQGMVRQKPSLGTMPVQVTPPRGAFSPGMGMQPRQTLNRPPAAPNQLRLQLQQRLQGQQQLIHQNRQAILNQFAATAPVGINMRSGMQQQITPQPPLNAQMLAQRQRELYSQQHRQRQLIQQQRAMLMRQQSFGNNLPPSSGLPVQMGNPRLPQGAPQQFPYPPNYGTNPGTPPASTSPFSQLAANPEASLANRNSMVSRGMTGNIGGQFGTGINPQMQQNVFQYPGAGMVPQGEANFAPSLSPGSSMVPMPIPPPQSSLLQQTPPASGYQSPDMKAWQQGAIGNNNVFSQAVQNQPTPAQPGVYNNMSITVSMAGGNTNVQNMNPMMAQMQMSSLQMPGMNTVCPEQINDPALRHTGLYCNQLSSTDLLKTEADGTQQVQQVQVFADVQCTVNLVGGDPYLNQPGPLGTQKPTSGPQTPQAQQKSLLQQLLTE

With `Cn1cnc(N)c2ncnc1-2` [Compound 3-MA, 3-methyladenine] the “effect on activation of SRC-3 by MCB-613” value (SRC-3) was “did not inhibit”.

`CCCCC/C=C/C=C1/C(=O)C=C[C@@H]1C/C=C\CCCC(=O)O` [Compound 15d-PGJ2, 15-deoxy-Δ^12,14-prostaglandin J2] was tested, and the “intrinsic transcriptional activity of SRC-2” value (SRC-2) was “robustly enhance”, the “intrinsic transcriptional activity of SRC-3” value (SRC-3) was “robustly enhance” and the “intrinsic transcriptional activity of SRC-1” value (SRC-1) was “robustly enhance”.

For `CC(C)C[C@@H](C=O)NC(=O)[C@H](CC(C)C)NC(=O)[C@H](CC(C)C)NC(=O)OCc1ccccc1` [MG132] (Cbz-Leu-Leu-Leu-aldehyde), the “intrinsic transcriptional activity of SRC-2” value (SRC-2) was “robustly enhance”, the “intrinsic transcriptional activity of SRC-3” value (SRC-3) was “robustly enhance” and the “intrinsic transcriptional activity of SRC-1” value (SRC-1) was “robustly enhance”.

With `CC(=O)N[C@@H](CS)C(=O)O` [N-Acetyl cysteine] the “effect on activation of SRC-2 by MCB-613” value (SRC-2; [5]) was “abrogate”, the “effect on activation of SRC-3 by MCB-613” value (SRC-3) was “abrogate” and the “effect on cell death caused by MCB-613” value (HeLa cells [1]) was “protected cells from MCB-613 mediated cytotoxicity”. The “effect on vacuolization induced by MCB-613” value (HeLa cells [2]) was “blocked” and the “effect on activation of SRC-1 by MCB-613” value (SRC-1; [5]) was “abrogate”.

For `CO[C@@H](C(=O)N1Cc2n[nH]c(NC(=O)c3ccc(N4CCN(C)CC4)cc3)c2C1)c1ccccc1` [PHA 739358], the “effect on activation of SRC-3 by MCB-613” value (SRC-3) was “significantly inhibited”.

In the case of `O=C1C(=Cc2cccnc2)COCC1=Cc1cccnc1` [SYC-851], the “toxicity to cancer cells compared with non-cancer cells” value [3] is reported as “more toxicity to cancer cells than to non-cancer cells”.

In the case of `CC(C)N1CC(=Cc2cccnc2)C(=O)C(=Cc2cccnc2)C1` [SYC-855], the “SRC-3 intrinsic transcriptional activity (luciferase)” value (SRC-3; Example 6) is reported as “high intrinsic transcriptional activity” and the “toxicity to cancer cells compared with non-cancer cells” value [3] is reported as “more toxicity to cancer cells than to non-cancer cells”.

With `C[C@]12CC[C@H](O)C[C@H]1CC[C@@H]1[C@@H]2CC[C@]2(C)[C@@H](c3ccc(=O)oc3)CC[C@]12O` [bufalin, reference compound] the “effect on vacuolization induced by MCB-613” value (HeLa cells [2]) was “effectively inhibited” and the “effect on induction of ER stress (ATF4) by MCB-613” value (HeLa cells [4]) was “completely reversed”.

`CCN(CC)CCCC(C)Nc1ccnc2cc(Cl)ccc12` (stereo not shown) [chloroquine] was tested, and the “effect on activation of SRC-3 by MCB-613” value (SRC-3) was “did not inhibit”.

In the case of `COc1cc(/C=C/C(=O)CC(=O)/C=C/c2ccc(O)c(OC)c2)ccc1O` [curcumin], the “intrinsic transcriptional activity of SRC-2” value (SRC-2) is reported as “robustly enhance”, the “intrinsic transcriptional activity of SRC-3” value (SRC-3) is reported as “robustly enhance” and the “intrinsic transcriptional activity of SRC-1” value (SRC-1) is reported as “robustly enhance”.

`C[C@@H]1C[C@@H]([C@H](O)CC2CC(=O)NC(=O)C2)C(=O)[C@@H](C)C1` [cycloheximide] was tested, and the “effect on cell death caused by MCB-613” value (HeLa cells [1]) was “protected cells from MCB-613 mediated cytotoxicity” and the “effect on vacuolization induced by MCB-613” value (HeLa cells [2]) was “blocked”.

With `COC(=O)C[C@H](NC(=O)[C@H](C)NC(=O)[C@@H](NC(=O)OCc1ccccc1)C(C)C)C(=O)CF` [z-VAD-fmk] (Cbz-Val-Ala-Asp(OMe)-CH2F) the “effect on activation of SRC-3 by MCB-613” value (SRC-3) was “did not inhibit”.
